Source: US11510888B2, “Alleviating oxidative stress disorders with PUFA derivatives” (Retrotope, Inc., priority 2009, dated 2022)

Experiments:
[1] = system: coq null mutants (Q-less yeast); conditions: for protection in the yeast model: compared with D4-linolenic acid
Description: FIG. 3. […] Yeast coq3, coq7 and coq9 null mutants were prepared in the W303 yeast genetic background (WT). Yeast strains were grown in YPD medium (1% Bacto-yeast extract, 2% Bacto-peptone, 2% dextrose) and harvested while in log phase growth (OD600nm=0.1-1.0). Cells were washed twice with sterile water and resuspended in phosphate buffer (0.10 M sodium phosphate, pH 6.2, 0.2% dextrose) to an OD600nm=0.2. Samples were removed and 1:5 serial dilutions starting at 0.20 OD/ml were plated on YPD plate medium, to provide a zero time untreated control (shown in top left panel). The designated fatty acids were added to 200 uM final concentration to 20 ml of yeast in phosphate buffer. At 2 h, 4 h, and 16 h samples were removed, 1:5 serial dilutions prepared, and spotted onto YPD plate medium. Pictures were taken after 2 days of growth at 30° C.
FIG. 4. […] The fatty acid sensitive assay was performed as described in FIG. 6-1, except that 100 ul aliquots were removed at 1, 2, and 4 h and, following dilution, spread onto YPD plates. Pictures were taken after 2 to 2.5 days, and the number of colonies counted. Yeast strains include Wild type (circles), atp2 (triangles), or coq3 (squares); Fatty acid treatments include oleic C18:1 (solid line), linolenic, C18:3, n-3 (dashed line) or 11,11,14,14-D4-linolenic, C18:3, n-3, (dotted line).
Q-less yeast (coq mutants) provide an ideal system to assess in vivo autoxidation of fatty acids. Coenzyme Q (ubiquinone or Q) serves as a small lipophilic antioxidant as well as an electron shuttle in the respiratory chain of the mitochondrial inner membrane. Ten S. cerevisiae genes (COQ1-COQ10) are required for coenzyme Q biosynthesis and function, and the deletion of any results in respiratory deficiency (Tran U C, Clarke C F. Mitochondrion 2007; 75,S62).
A plate dilution assay can be used to assess PUFA sensitivity. This assay can be performed by spotting serial five-fold dilutions of aliquots onto YPD plate media (FIG. 3). The sensitivity of the different strains can be observed by visual inspection of the density of cells in each spot.

WT (W303) yeast = conditions: 200 μM, 4 h incubation
Description: Uptake of exogenously supplied fatty acids by yeast. WT (W303) yeast were harvested at log phase and incubated in the presence of 200 μM of the designated fatty acid for either 0 or 4 h.
Chromatograms of the yeast extracts subjected to GC-MS analyses. The different traces represent the 0 and 4 h incubations, respectively. The peak area of Each FAME (C18:1, C18:3 and D4-linolenic) was divided by the peak area of the C17:0 standard, quantified with a calibration curve.
Wild-type yeast were harvested during log phase growth and incubated in the presence of exogenously added fatty acid (for 0 or 4 h) in the presence of phosphate buffer plus 0.20% dextrose, as described for the fatty acid sensitivity assay. Cells were harvested, washed twice with 10 ml sterile water, and the yeast cell pellets were then processed by alkaline methanolysis as described above. The fatty acids are detected as methylesters (FAMEs) following GC-MS with C17:0 added as an internal standard (FIG. 6). The amounts of 18:3 and D4 detected after 4 h incubation were extrapolated from the calibration curve.

[2] = mouse, in vivo; cited from earlier work
[3] = system: coq null mutants (Q-less yeast); conditions: cited from earlier work; for sensitivity of Q-less yeast to fatty acid treatment: compared with wild-type parental strain
[4] = system: wild-type (strain W303-1B) cells; conditions: four hour treatment; cited from earlier work

## [2H]C([2H])(/C=C\C/C=C\CC)C/C=C\CCCCCCC(=O)O [11, 11-D2-linolenic acid, 11,11-Dideutero-cis,cis,cis-octadeca-8,12,15-trienoic acid]
[1]
  protection in the yeast model: comparable protection

## [2H]C([2H])(/C=C\CC)/C=C\CC/C=C\CCCCCCC(=O)O [14, 14-D2-linolenic acid, 14,14-Dideutero-cis,cis,cis-octadeca-8,12,15-trienoic acid]
[1]
  protection in the yeast model: comparable protection

## [2H]C([2H])(/C=C\CC)/C=C\C([2H])([2H])/C=C\CCCCCCCC(=O)O [D4-linolenic acid, 11,11,14,14-Tetradeutero-cis,cis,cis-9,12,15-Octadecatrienoic acid]
[1]; quantitative colony counting
  viability of cells compared with oleic acid treatment: similar
WT (W303) yeast
  incorporation of exogenously added fatty acid by yeast: avidly incorporate

## CCCCC/C=C\C/C=C\CCCCCCCC(=O)O [LA, (9Z,12Z)-9,12-Octadecadienoic acid]
[2]
  time at which higher-order PUFA concentration peaks in brain: ≤ 8 h

## CCCCC/C=C\C/C=C\C/C=C\C/C=C\CCCC(=O)O [arachidonic acid]
[3]
  sensitivity of Q-less yeast to fatty acid treatment: hypersensitive

## CC/C=C\C/C=C\C/C=C\CCCCCCCC(=O)O [linolenic acid, (9Z,12Z,15Z)-9,12,15-Octadecatrienoic acid]
[1]; 200 uM fatty acid, plate dilution assay
  viability / cell killing of coq mutants: dramatic loss of viability
[1]; quantitative colony counting, treatment for 4 h
  reduction of viability of the coq mutants: more than 100 fold
WT (W303) yeast
  incorporation of exogenously added fatty acid by yeast: avidly incorporate
[3]; following a four hour treatment
  viable Q-less (coq2, coq3, and coq5) yeast mutants: Less than 1%
[4]
  wild-type cells remaining viable: 70%
[2]
  time at which higher-order PUFA concentration peaks in brain: ≤ 8 h

## CCCCCCCC/C=C\CCCCCCCC(=O)O [oleic acid]
[3]
  sensitivity of Q-less yeast to fatty acid treatment: behave the same as the wild-type parental strain
